Experiment: xn = mol fraction of the nth substance listed

COCCOCCOCCOCCOC + CCOC(C)=O
viscosity [mPa·s], 101 kPa
Details | 298.15 K | 308.15 K | 318.15 K
x1 = 0.0108 | 0.448 | 0.399 | 0.364
x1 = 0.0195 | 0.462 | 0.413 | 0.375
x1 = 0.0488 | 0.514 | 0.456 | 0.413
x1 = 0.0905 | 0.594 | 0.521 | 0.465
x1 = 0.1406 | 0.695 | 0.607 | 0.534
x1 = 0.1786 | 0.779 | 0.673 | 0.591
x1 = 0.2377 | 0.919 | 0.784 | 0.68
x1 = 0.3377 | 1.176 | 0.988 | 0.847
x1 = 0.4796 | 1.579 | 1.315 | 1.092
x1 = 0.5793 | 1.896 | 1.549 | 1.282
x1 = 0.6422 | 2.11 | 1.699 | 1.4
x1 = 0.7422 | 2.453 | 1.97 | 1.549
x1 = 0.8246 | 2.726 | 2.169 | 1.755
x1 = 0.8574 | 2.878 | 2.258 | 1.826
x1 = 0.9081 | 3.019 | 2.398 | 1.921
x1 = 0.9454 | 3.159 | 2.488 | 1.998
x1 = 0.9792 | 3.305 | 2.581 | 2.072

Clc1cccc2ccccc12 + CCCCO
viscosity [mPa·s], 101.33 kPa
Details | x1 = 0.1002 | x1 = 0.1997 | x1 = 0.2969 | x1 = 0.4016 | x1 = 0.5004 | x1 = 0.599 | x1 = 0.6949 | x1 = 0.8006 | x1 = 0.8969
298.15 K | 2.486 | 2.447 | 2.383 | 2.376 | 2.379 | 2.43 | 2.491 | 2.591 | 2.697
303.15 K | 2.176 | 2.149 | 2.11 | 2.102 | 2.109 | 2.153 | 2.207 | 2.301 | 2.414
308.15 K | 1.927 | 1.894 | 1.865 | 1.854 | 1.864 | 1.914 | 1.977 | 2.059 | 2.173

C=CC(=O)OCC + CCCCCCCCO
viscosity [mPa·s], 101.3 kPa
Details | x1 = 0.0771 | x1 = 0.2017 | x1 = 0.2664 | x1 = 0.3869 | x1 = 0.4933 | x1 = 0.6865 | x1 = 0.7722 | x1 = 0.8504 | x1 = 0.9275 | x1 = 0.9634
298.15 K | 5.444 | 3.576 | 2.914 | 2.043 | 1.543 | 0.96 | 0.785 | 0.681 | 0.582 | 0.546
308.15 K | 4.096 | 2.812 | 2.301 | 1.663 | 1.268 | 0.825 | 0.678 | 0.586 | 0.507 | 0.478

Clc1ccccc1 + CCCCCC
viscosity [mPa·s], 101.33 kPa
Details | x2 = 0.0793 | x2 = 0.1624 | x2 = 0.2494 | x2 = 0.3407 | x2 = 0.4367 | x2 = 0.5377 | x2 = 0.644 | x2 = 0.7562 | x2 = 0.8747
303.15 K | 0.6623 | 0.6095 | 0.5578 | 0.5101 | 0.4658 | 0.4254 | 0.3927 | 0.3549 | 0.3227
313.15 K | 0.6011 | 0.5513 | 0.5124 | 0.4699 | 0.4288 | 0.3946 | 0.3647 | 0.3305 | 0.3021
323.15 K | 0.5314 | 0.4893 | 0.4543 | 0.4164 | 0.3835 | 0.3551 | 0.3268 | 0.2997 | 0.2745

Clc1ccccc1 + Cc1cccc(C)c1
101 kPa
Details | viscosity [mPa·s]
293.15 K, x1 = 0.1317 | 0.622
293.15 K, x1 = 0.2304 | 0.64
293.15 K, x1 = 0.3342 | 0.658
293.15 K, x1 = 0.4457 | 0.675
293.15 K, x1 = 0.5734 | 0.692
293.15 K, x1 = 0.6411 | 0.7
293.15 K, x1 = 0.7297 | 0.715
293.15 K, x1 = 0.8241 | 0.725
293.15 K, x1 = 0.9089 | 0.737
298.15 K, x1 = 0.115 | 0.587
298.15 K, x1 = 0.2331 | 0.605
298.15 K, x1 = 0.3319 | 0.621
298.15 K, x1 = 0.465 | 0.641
298.15 K, x1 = 0.565 | 0.655
298.15 K, x1 = 0.6929 | 0.671
298.15 K, x1 = 0.7812 | 0.685
298.15 K, x1 = 0.9072 | 0.697
303.15 K, x1 = 0.1144 | 0.55
303.15 K, x1 = 0.2301 | 0.571
303.15 K, x1 = 0.3415 | 0.585
303.15 K, x1 = 0.4598 | 0.605
303.15 K, x1 = 0.562 | 0.615
303.15 K, x1 = 0.6931 | 0.63
303.15 K, x1 = 0.8136 | 0.645
303.15 K, x1 = 0.904 | 0.651
308.15 K, x2 = 0.0886 | 0.661
308.15 K, x2 = 0.2076 | 0.6411
308.15 K, x2 = 0.3076 | 0.6254
308.15 K, x2 = 0.4147 | 0.6081
308.15 K, x2 = 0.5146 | 0.5927
308.15 K, x2 = 0.6138 | 0.578
308.15 K, x2 = 0.715 | 0.562
308.15 K, x2 = 0.8146 | 0.5474
308.15 K, x2 = 0.9338 | 0.5309
313.15 K, x2 = 0.0886 | 0.6235
313.15 K, x2 = 0.2076 | 0.6053
313.15 K, x2 = 0.3076 | 0.5896
313.15 K, x2 = 0.4147 | 0.5741
313.15 K, x2 = 0.5146 | 0.5604
313.15 K, x2 = 0.6138 | 0.5458
313.15 K, x2 = 0.715 | 0.5302
313.15 K, x2 = 0.8146 | 0.5163
313.15 K, x2 = 0.9338 | 0.5007

Clc1ccccc1 + CS(C)=O
viscosity [mPa·s]
Details | 298.15 K | 299 K | 308.15 K | 318.15 K
101 kPa, x2 = 0.0871 | – | 1.227 | – | –
101 kPa, x2 = 0.2483 | – | 1.401 | – | –
101 kPa, x2 = 0.462 | – | 1.715 | – | –
101 kPa, x2 = 0.5887 | – | 2.067 | – | –
101 kPa, x2 = 0.7046 | – | 2.357 | – | –
101 kPa, x2 = 0.8612 | – | 2.819 | – | –
101.3 kPa, x1 = 0.035 | 1.865 | – | 1.559 | 1.273
101.3 kPa, x1 = 0.072 | 1.803 | – | 1.474 | 1.224
101.3 kPa, x1 = 0.148 | 1.682 | – | 1.39 | 1.142
101.3 kPa, x1 = 0.23 | 1.564 | – | 1.29 | 1.098
101.3 kPa, x1 = 0.317 | 1.421 | – | 1.17 | 1.021
101.3 kPa, x1 = 0.411 | 1.299 | – | 1.077 | 0.927
101.3 kPa, x1 = 0.511 | 1.193 | – | 0.986 | 0.865
101.3 kPa, x1 = 0.619 | 1.085 | – | 0.929 | 0.833
101.3 kPa, x1 = 0.736 | 0.966 | – | 0.823 | 0.742
101.3 kPa, x1 = 0.863 | 0.866 | – | 0.733 | 0.668
101.3 kPa, x1 = 0.936 | 0.826 | – | 0.704 | 0.643
101.33 kPa, x2 = 0.1 | 0.826 | – | 0.738 | 0.656
101.33 kPa, x2 = 0.2 | 0.905 | – | 0.807 | 0.709
101.33 kPa, x2 = 0.3 | 0.993 | – | 0.88 | 0.769
101.33 kPa, x2 = 0.4 | 1.094 | – | 0.958 | 0.832
101.33 kPa, x2 = 0.5 | 1.206 | – | 1.043 | 0.902
101.33 kPa, x2 = 0.6 | 1.329 | – | 1.136 | 0.981
101.33 kPa, x2 = 0.7 | 1.466 | – | 1.239 | 1.068
101.33 kPa, x2 = 0.8 | 1.616 | – | 1.361 | 1.165
101.33 kPa, x2 = 0.9 | 1.784 | – | 1.5 | 1.274

From the CheMixHub viscosity set
